# Assay results reported in US7566808B2, “Management of ophthalmologic disorders, including macular degeneration” (President and Fellows of Harvard College, priority 2004, dated 2009).
# Test system: bovine retinal pigment epithelial membrane system (11-cis-retinol formation)
# Test: 11-cis-retinol formation in RPE membranes (IMH activity / RPE65 function)
# Type: biochemical
# Conditions: 60 μM, data not shown
# Procedure: A control reaction mixture without any inhibitor was also incubated at room temperature for 15 min. At the end of the 15 min incubation, all-trans-retinol [11-12-^3H2] (0.2 μM) was added to the reaction mixtures (100 mM Tris pH 8.0, […] of RPE protein, 0.2% BSA 100 μM of DPPC, 1 mM of DTT and 0.2 μM all-trans-retinol [11-12-^3H2]) and incubated at room temperature for 30 min. At the end of this 30 minutes of incubation, an aliquot of the reactions were quenched to verify the equal addition of all-trans-retinol [11,12-^3H2] and the effect of these inhibitors on LRAT. After this the control reaction mixture was incubated with atRA (60 & 6 μM), 13cRA (60 & 6 μM) or 4-HPR (60 & 6 μM) for 15 min. Now all the reaction mixtures were incubated with 30 μM of apo-rCRALBP (100 mM Tris pH 8.0, 7.7 μg of RPE protein, 0.2% BSA 100 μm of DPPC, 1 mM of DTT 30 μM apo-rCRALBP and 0.2 μM all-trans-retinol [11-12-^3H2]) at 37° C. for 30 minutes. At the end of this incubation period the 200 μL reaction mixture was quenched by the addition of 750 μL ice cold methanol after which 100 μL of 1M sodium chloride solution was added, and 500 μl hexane (containing butylated hydroxy toluene at 1 mg/mL) was added to effect extraction of the retinoids. The retinoids were analyzed as previously described (27). The amount of 11-cis-retinol formed was used as a measurement of IMH activity. All experiments were performed in triplicate and the average values of these measurements were used for analysis.
# A control reaction mixture without any inhibitor was also incubated at room temperature for 15 min. At the end of the 15 min incubation, all-trans-retinol [11-12-^3H2] (0.2 μM) was added to the reaction mixtures (100 mM Tris pH 8.0, 76.7 μg of RPE protein, 0.2% BSA 100 μM of DPPC, 1 mM of DTT and 0.2 μM all-trans-retinol [11-12-^3H2]) and incubated at room temperature for 30 min. […] The retinoids were analyzed as previously described (27). […]
structure (smiles),measurement,value
"CC1=C(/C=C/C(C)=C/C=C/C(C)=C\C(=O)O)C(C)(C)CCC1 [13-cis-retinoic acid, reference compound]","inhibition of 11-cis-retinol formation, membranes pre-incubated with vitamin A before inhibitor",not susceptible to inhibition
